Data on 13 compounds can be found in article PMC6733959, “Synthesis and Evaluations of Novel Apocynin Derivatives as Anti-Glioma Agents” (Frontiers in Pharmacology, 2019).

Series [1] in a line: Transport experiment in the in vitro BBB cell model. Type of series: in vitro ADME. To be noted: Sprague-Dawley, rat, apical to basolateral, mean ± SD (n = 3-4), read-out: Papp × 10^−6; for Papp at 90 min, 100 μM: C0 100 μM; for Papp at 90 min, 20 μM: C0 20 μM. The protocol: (§1) Rat brain microvascular endothelial cells (BMECs) were separated from the cerebral cortex of 18-day-old male Sprague-Dawley rats as described previously ([Biegel et al., 1995]). Briefly, the cerebral cortical tissues were dissected from meninges after the rats were sacrificed, then the tissues were homogenated in physiological buffer solution (pH 7.4). After centrifugation, the pellets were collected, and the microvascular segments were then digested with 0.1% collagenase II at 37°C for 1 h. […] The second passage was used for co-culture of BBB cellular models.
Astrocytes were separated from the cerebral cortex of newborn Sprague-Dawley rats (1–2 days) as described previously ([Jeliazkova-Mecheva and Bobilya, 2003]). The brain tissues (removal of the meninges and blood vessel) were minced and mechanical homogenized and then digested with 0.25% trypsin-EDTA at 37°C for 10 min.
The in vitro BBB cell model was constructed in the Transwell 24well plate ([…], Millipore, USA). Before the experiment, the transwell filters were coated with matrigel matrix. The isolated rat astroglias were seeded onto one side of polycarbonate inserts (5 × 10^4 cells/insert). After 3 to 5 days, the rat BMECs were seeded at a density of 1.5 × 10^5 cells/insert onto the opposite side of the inserts to produce rat BMEC monolayers. The in vitro BBB cell model was formed 3 to 4 days. Trans-epithelial electrical resistance (TEER) measurements were performed everyday after the co-cultures formed until the TEER value increased to […] ([Yang et al., 2014]) ( Figure 2C ).
The transport experiments were performed by adding 400 μl HBSS containing the compounds to the apical side (AP), with 600μl HBSS to the basolateral side (BL) at the same time. Samples (60 μl) were collected from the BL chamber at the time points of 15, 30, 60, 90, 120, and 180 min, and the corresponding volume of HBSS buffer was immediately added into the BL chamber. The samples were precipitated by methanol, and the concentrations of the compounds in the samples were determined by high-performance liquid chromatography (HPLC). The HPLC conditions were as follows: Agilent TC-C18 column (250 × 4.6 mm; 5 μm), methanol 1% ethanoic acid mobile phase (from 10:90 to 90:10, v/v), with gradient elution at a flow rate of 1.0 ml/min. The detection wavelength was 275 nm for these compounds. The run time was 20 min. The apparent permeability coefficients (P app) were calculated from the following formula: P app = (∆Q/∆t)/(A × C 0), where ∆Q/∆t is the linear appearance rate of the compound on the BL side (μmol/s), A is the surface area of the cell monolayer (cm^2), and C 0 is the initial concentration of the drug on the AP side (μmol/L).

The subject of the next series is rat BMECs. In words: Cytotoxicity of apocynin derivatives on rat BMECs (MTT, 24 h). The class given is cell-based. To be noted: 100 μM, vs control, P < 0.05. The method, then: as §1
Rat BMECs were collected and seeded into 96-well culture plates at a density of 7.5 × 10^3 cells/well overnight. The cells were treated with different concentrations of the compounds (10, 20, and 100 μM) for 24 h, respectively. Then, 20-μl MTT (5 mg/ml) in fresh medium was added to each well and incubated for another 4 h. Finally, 150μl dimethyl sulfoxide (DMSO) was added to dissolve formazan crystals, and the absorbance was detected at 490 nm in a multiwall-plate reader (BioTek ELx800).

For a further series, the system named is rat C6 glioma cells. In words: Anti-glioma MTT assay, C6 cells. Type of series: cell-based. As to conditions: for Anti-proliferation effect on C6 cells (first screening): 10, 20, 100 μM, compared with D1, P < 0.05; for IC50: Rattus norvegicus, C6 cells. The method, then:
(§2) The anti-glioma effects of these compounds were evaluated by MTT assay in rat C6 glioma cells, human glioma U87 and U251 cells, and BMECs cells. Brieﬂy, cells were seeded at the density of 4,000 cells/well in 96-well plates overnight. For the first screening, the cells were incubated with 10, 20, 100 μM compounds for 48 h. Then cell viabilities were detected by MTT assay as described above. For the second screening, the cells were incubated with 6.25-, 12.5-, 25-, 50-, and 100μM compounds for 48 and 96 h, and then detected by MTT assay. The OD of each well was measured at 490 nm on an ELISA microplate reader. The inhibitory rates and IC50 values were calculated.

Another series concerns human glioma U87 cells. In words: Anti-glioma MTT assay, U87 cells. Type of series: cell-based. As to conditions: for Anti-proliferation effect on U87 cells (first screening): 10, 20, 100 μM, compared with D1, P < 0.05; for IC50: Homo sapiens, U-87 MG, U87 cells. The protocol:
as §2

The test system of a further series is human glioma U251 cells. In words: Anti-glioma MTT assay, U251 cells. The class given is cell-based. The method, then: as §2
The test system of a further series is BMECs. In words: MTT assay on normal BMECs (48 and 96 h). The class given is cell-based. As to conditions: Rattus norvegicus. The method, then: as §1, §2
The test system of another series is C6 glioma. In words: Rat C6 glioma model. Type of series: in vivo. To be noted: C6 glioma-bearing Wistar rats, 25 mg/kg i.p. daily; for Tumor volume vs control group: MRI 13 days after treatment. The protocol:
C6 glioma model was established as previously reported ([Xu etal., 2016]). The C6 glioma cells in the logarithmic growth phase were collected for implantation. Male Wistar rats (male, 160–180g) were anesthetized with 10% chloral hydrate, and then a hole (1 mm diameter) was drilled in the cranial bone. C6 cells in PBS were injected slowly (3 × 10^6 cells/rat).
Tumors in the brains of the rats were detected by Bruker 7.0 T Micro-MRI using a T2W RARE sequence (TR/TE 3000/15 ms; slice thickness, 1.0 mm; flip angle, 180°; Matrix 256×256; slice gap, 1.0 mm; FOV, 33×33 mm; time, 4.8 min) 7 days after implantation. Tumor volumes (V) were calculated by the following formula: V = (4/3 × π × LHW)/8, where L is the maximum anteroposterior diameter, H and W are the height and width. Then the rats were sacrificed, and the brain tissues were fixed with formalin, embedded in paraffin, sectioned, and subjected to hematoxylin/eosin (HE) staining and immunohistochemical staining for glial fibrillary acidic protein (GFAP) as previously described ([Xu et al., 2016]). The sections from each animal were analyzed by a pathologist. Only rats with maximum intracerebral tumor diameter of >5.0 mm were used.
After the successful implantation, the rats were randomly divided into […] and treated with different drugs by intraperitoneal injection daily: control group (PBS, n = 6), TMZ group (25 mg/kg, n = 6), D14 group (25 mg/kg, n = 6), and D31 group (25 mg/kg, n = 6). The body weights were recorded everyday after administration. Thirteen days after treatment, brain tumors in the rats were detected by Bruker 7.0 T Micro-MRI as described above. Tumor volumes were calculated and recorded as above.

The conditions of series [2]: cited from earlier work; for BBB penetration rate relative to morphine: ref Oldendorf et al., 1972.

The structures appear in SMILES notation. A value given as a limit tells only on which side of the number the result lay.

As to `COc1cc(C(=O)CNc2ccccc2)ccc1OCc1ccccc1` [Compound D5, 1-(4-(Benzyloxy)-3-Methoxyphenyl)-2-(Phenylamino)Ethan-1-One], in series [1], the apparent permeability (Papp) at 90 min, 100 μM was determined as 10.3 ± 0.31 ×10⁻⁶ cm/s.

`COc1cc(C(=O)CNc2ccc(F)cc2)ccc1OCc1ccccc1` [Compound D6, 1-(4-(Benzyloxy)-3-Methoxyphenyl)-2-((4-Fluorophenyl)Amino) Ethan-1-One]: in series [1], the Papp at 90 min, 100 μM is 8.68 ± 0.45 ×10⁻⁶ cm/s.

In the case of `COc1cc(C(=O)CNc2ccccc2)ccc1O` [Compound D13, 1-(4-Hydroxy-3-Methoxyphenyl)-2-(Phenylamino)Ethan-1-One], in the series with rat BMECs, the “Effect on cell viability of rat BMECs” value is on record as “significantly inhibit the cell viability”. In addition, in series [1], the apparent permeability coefficient (Papp) at 90 min, 20 μM was found to be 5.41 ± 0.52 ×10⁻⁶ cm/s. In addition, in the series on rat C6 glioma cells (48 h), the “Anti-proliferation effect on C6 cells (first screening)” value (“Anti-proliferation effect on C6 cells” for short) is “significant anti-proliferation effects”.

`COc1cc(C(=O)CNc2ccc(F)cc2)ccc1O` [Compound D14, 2-((4-Fluorophenyl)amino)-1-(4-Hydroxy-3-Methoxyphenyl)Ethan-1-One]: in the series with rat BMECs, the “Effect on cell viability of rat BMECs” value is “significantly inhibit the cell viability”. In series [1], the apparent permeability (Papp) at 90 min, 20 μM came out at 4.24 ± 1.3 ×10⁻⁶ cm/s. Also, the “Anti-proliferation effect on C6 cells” value in the series with rat C6 glioma cells (48 h) is on record as “significant anti-proliferation effects”. The 50% inhibitory concentration (IC50) with rat C6 glioma cells (48 h) was determined as 37.2 µM; in the series with rat C6 glioma cells (96 h) it was 22.9 µM; in the series with human glioma U87 cells (48 h), 61.6 µM; in the series with human glioma U87 cells (96 h), 60.1 µM; in the series with human glioma U251 cells (U-251, 48 h) it was 71.6 µM; in the series with human glioma U251 cells (U-251, 96 h), 34.5 µM. The IC50 was > 100 µM in the series on BMECs (48 h) and 78.2 µM in the series on BMECs (96 h). Moreover, the “Anti-proliferation effect on U87 cells (first screening)” value in the series on human glioma U87 cells (48 h) was “significant anti-proliferation effects”. Besides, the “Body weight changes vs control group” value in the series with C6 glioma is “no obvious body weight changes”. For the same compound, the “Tumor volume vs control group” value in the series with C6 glioma is given as “no obvious growth inhibitory effects”.

With `COc1cc(NCC(=O)c2ccc(O)c(OC)c2)cc(OC)c1` [Compound D16, 2-((3,5-Dimethoxyphenyl)Amino)-1-(4-Hydroxy-3-Methoxyphenyl)Ethan-1-One], the “Effect on cell viability of rat BMECs” value in the series on rat BMECs is “significantly inhibit the cell viability”. For the same compound, in series [1], the Papp at 90 min, 20 μM was 2.54 ± 0.58 ×10⁻⁶ cm/s.

In the case of `COc1cc(C(=O)CNc2ccc(F)cc2F)ccc1O` [Compound D21, 2-((2,4-Difluorophenyl)Amino)-1-(4-Hydroxy-3-Methoxyphenyl)Ethan-1-One], the Papp at 90 min, 100 μM in series [1] amounted to 6.08 ± 0.65 ×10⁻⁶ cm/s.

As to `COc1cc(C(=O)CNc2ccc(Cl)cc2)ccc1O` [Compound D22, 2-((4-Chlorophenyl)Amino)-1-(4-Hydroxy-3-Methoxyphenyl)Ethan-1-One], the apparent permeability coefficient (Papp) at 90 min, 100 μM in series [1] came to 5.42 ± 0.58 ×10⁻⁶ cm/s.

Turning to `COc1cc(C(=O)CSCc2ccccc2)ccc1O` [Compound D33, 2-(Benzylthio)-1-(4-Hydroxy-3-Methoxyphenyl)Ethan-1-One], the “Effect on cell viability of rat BMECs” value in the series on rat BMECs is “significantly inhibit the cell viability”. Also, the apparent permeability coefficient (Papp) at 90 min, 20 μM in series [1] is 9.58 ± 2.35 ×10⁻⁶ cm/s. The “Anti-proliferation effect on C6 cells” value in the series on rat C6 glioma cells (48 h) is “significant anti-proliferation effects”.

On to `COc1cc(C(=O)CSCc2ccc(F)cc2)ccc1O` [Compound D34, 2-((4-Fluorobenzyl)Thio)-1-(4-Hydroxy-3-Methoxyphenyl)Ethan-1-One], for which the “Effect on cell viability of rat BMECs” value with rat BMECs is on record as “significantly inhibit the cell viability”. The Papp at 90 min, 20 μM in series [1] is 11.9 ± 1.53 ×10⁻⁶ cm/s. In addition, the “Anti-proliferation effect on C6 cells” value in the series on rat C6 glioma cells (48 h) is reported as “significant anti-proliferation effects”.

As to `CCC1(c2ccccc2)C(=O)NC(=O)NC1=O` [Phenobarbital, 5-ethyl-5-phenylbarbituric acid], in series [2] (ref Liu et al., 2007), the “BBB penetration rate relative to barbituric acid” value is listed as “increased BBB penetration rate”.

`Cn1nnc2c(C(N)=O)ncn2c1=O` [TMZ, Temozolomide, reference compound]: in the series on rat BMECs, the “Effect on cell viability of rat BMECs” value was “significantly inhibit the cell viability”. In addition, the Papp at 90 min, 20 μM in series [1] turned out to be 7.74 ± 0.34 ×10⁻⁶ cm/s. Moreover, the “Anti-proliferation effect on C6 cells” value in the series on rat C6 glioma cells (48 h) is given as “significant anti-proliferation effects”. In addition, the half-maximal inhibitory concentration (IC50) in the series with rat C6 glioma cells (48 h) turned out to be 51.1 µM; with rat C6 glioma cells (96 h), 36.8 µM; with human glioma U87 cells (48 h), 54.1 µM; in the series on human glioma U87 cells (96 h), 28.4 µM; with human glioma U251 cells (U-251, 48 h), 48.1 µM; in the series on human glioma U251 cells (U-251, 96 h), 15.3 µM. Also, the figures for the IC50 with BMECs (48 h) and in the series on BMECs (96 h) were 94.5 µM and 54.4 µM, respectively. For the same compound, the “Anti-proliferation effect on U87 cells (first screening)” value in the series on human glioma U87 cells (48 h) is listed as “significant anti-proliferation effects”. In the series on C6 glioma, the “Body weight changes vs control group” value was “no obvious body weight changes”. In the series with C6 glioma, the “Tumor volume vs control group” value was “significantly decreased”.

In the case of `COc1ccc2c3c1O[C@H]1[C@@H](O)C=C[C@H]4[C@@H](C2)N(C)CC[C@@]341` [codeine], in series [2], the “BBB penetration rate relative to morphine” value is 10 times.

With `CC(=O)Oc1ccc2c3c1O[C@H]1[C@@H](OC(C)=O)C=C[C@H]4[C@@H](C2)N(C)CC[C@@]341` [heroin, diacetylmorphine], the “BBB penetration rate relative to morphine” value in series [2] is on record as 100 times.
